Data taken from patent publication US7060721B1, “Imidazole compounds and medicinal use thereof” (Fujisawa Pharmaceutical Co., Ltd., priority 1998, dated 2006).

Tested on: db/db mice
Experiment: Blood sugar level depressing activity in db/db mice
Type: in vivo
Conditions: female db/db mice; dose 3.2 mg/kg; drug-mixed diet given for 14 days; difference between db/db control group and +/+ mice taken as 100%
Method: (Blood Sugar Level Depressing Activity in db/db Mice)
Female C57BL/KsJ-dbm db+/db+, C57BL/KsJ-dbm +m/+m (Jackson Laboratory) mice (5 weeks old) were purchased and subjected to the test after 2–3 weeks of acclimating period.
The test drug was mixed with a powder diet (CE-2, Clea Japan, Inc.) in a mortar. In the case of administration in 100 mg/kg, the mixing proportion was 0.1%, in the case of 30 mg/kg, the proportion was 0.03% and in the case of 10 mg/kg, the proportion was 0.01%. The diet was changed twice a week for each group. The amount of the diet given and the amount left were recorded and the diet intake was calculated by determining the difference.
The female db/db mice were grouped according to body weight, blood sugar level and triglyceride concentration in plasma. […] The blood sugar value, triglyceride concentration in plasma and insulin concentration in plasma were measured at day 0 and day 14, and blood sugar value and triglyceride concentration in plasma were measured at day 7. Body weight was measured at day 0, day 7 and day 14. […]
Blood sugar value was measured using 10–15 μl of plasma and in accord with glucose oxidase method (glucose CII-Test Wako, Wako Pure Chemicals Co., Ltd.). The triglyceride concentration in plasma was measured using 10–15 μl of plasma and in accord with GPO-p-chlorophenol method (triglyceride G-Test Wako) or GPO-DAOS method (triglyceride E-Test Wako). […]

Row | Compound | Blood sugar decrease (%)
1 | Cc1ccc(S(=O)(=O)NC(=O)/C=C/c2c(Cl)nc(C)n2Cc2ccc(-c3ccccc3)cc2Cl)cc1 [Compound A, (E)-3-[4-chloro-1-(2-chloro-4-phenylbenzyl)-2-methylimidazol-5-yl]-N-((4-methylbenzene)sulfonyl)-2-propenamide] | 63%

Tested on: not given
Experiment: not given
Conditions: not given

Row | Compound | melting point
2 | CCCCCS(=O)(=O)NC(=O)/C=C/c1c(Cl)nc(CC)n1Cc1ccc(C#Cc2ccccc2)cc1Cl [Example 57, (E)-3-(4-chloro-1-(2-chloro-4-(phenylethynyl)benzyl)-2-ethylimidazol-5-yl)-N-(1-pentanesulfonyl)-2-propenamide] | 161 to 163 °C
3 | CCC/C=C/S(=O)(=O)NC(=O)/C=C/c1c(Cl)nc(CC)n1Cc1ccc(C#Cc2ccccc2)cc1Cl [Example 58, (E)-3-(4-chloro-1-(2-chloro-4-(phenylethynyl)benzyl)-2-ethylimidazol-5-yl)-N-((E)-1-penten-1-ylsulfonyl)-2-propenamide] | 173 to 175 °C
4 | CCc1nc(Cl)c(/C=C/C(=O)NS(=O)(=O)c2ccc(C)cc2)n1Cc1ccc(/C=C/c2ccccc2)cc1Cl [Example 60, (E)-3-(4-chloro-1-(2-chloro-4-((E)-2-phenylethenyl)benzyl)-2-ethylimidazol-5-yl)-N-(4-methylbenzenesulfonyl)-2-propenamide] | 250 to 252 °C
5 | CCCCS(=O)(=O)NC(=O)/C=C/c1c(Cl)nc(CC)n1Cc1ccc(/C=C/c2ccccc2)cc1Cl [Example 61, (E)-N-(1-butanesulfonyl)-3-(4-chloro-1-(2-chloro-4-((E)-2-phenylethenyl)benzyl)-2-ethylimidazol-5-yl)-2-propenamide] | 210 to 213 °C
6 | CCCCCS(=O)(=O)NC(=O)/C=C/c1c(Cl)nc(CC)n1Cc1ccc(/C=C/c2ccccc2)cc1Cl [Example 62, (E)-3-(4-chloro-1-(2-chloro-4-((E)-2-phenylethenyl)benzyl)-2-ethylimidazol-5-yl)-N-(1-pentanesulfonyl)-2-propenamide] | 197 to 200 °C
7 | CCC/C=C/S(=O)(=O)NC(=O)/C=C/c1c(Cl)nc(CC)n1Cc1ccc(/C=C/c2ccccc2)cc1Cl [Example 63, (E)-3-(4-chloro-1-(2-chloro-4-((E)-2-phenylethenyl)benzyl)-2-ethylimidazol-5-yl)-N-((E)-1-penten-1-ylsulfonyl)-2-propenamide] | 197 to 200 °C

Other lines, results leading:

Row | melting point | Compound
8 | 251 to 253 °C | Cc1nc(C)n(Cc2ccc(Br)cc2Cl)c1/C=C/C(=O)NS(=O)(=O)/C=C/c1ccccc1 [Example 64, (E)-3-(1-(4-bromo-2-chlorobenzyl)-2,4-dimethylimidazol-5-yl)-N-((E)-2-phenylethenesulfonyl)-2-propenamide]
9 | 208 to 209 °C | CCCCCOc1ccc(Cn2c(C)nc(Br)c2/C=C/C(=O)NS(=O)(=O)/C=C/c2ccccc2)c(Cl)c1 [Example 65, (E)-3-(4-bromo-1-(2-chloro-4-(1-pentyloxy)benzyl)-2-methylimidazol-5-yl)-N-((E)-2-phenylethenesulfonyl)-2-propenamide]
10 | 171 to 172 °C | CCCCCOc1ccc(Cn2c(/C=C(\Cc3ccccc3)C(=O)NS(=O)(=O)/C=C/c3ccccc3)cnc2C)c(Cl)c1 [Example 67, (E)-2-benzyl-3-(1-(2-chloro-4-(1-pentyloxy)benzyl)-2-methylimidazol-5-yl)-N-((E)-2-phenylethenesulfonyl)-2-propenamide]
11 | 168 to 169 °C | CCCCCOc1ccc(Cn2c(/C=C(\CCCCC)C(=O)NS(=O)(=O)/C=C/c3ccccc3)cnc2C)c(Cl)c1 [Example 68, (E)-3-(1-(2-chloro-4-(1-pentyloxy)benzyl)-2-methylimidazol-5-yl)-2-(1-pentyl)-N-((E)-2-phenylethenesulfonyl)-2-propenamide]
12 | 156 to 158 °C | CCCCCOc1ccc(Cn2c(/C=C(\Cc3cccnc3)C(=O)NS(=O)(=O)/C=C/c3ccccc3)cnc2C)c(Cl)c1 [Example 69, (E)-3-(1-(2-chloro-4-(1-pentyloxy)benzyl)-2-methylimidazol-5-yl)-2-((3-pyridyl)methyl)-N-((E)-2-phenylethenesulfonyl)-2-propenamide]
13 | 143 to 145 °C | CCCCCOc1ccc(Cn2c(/C=C(\C)C(=O)NS(=O)(=O)/C=C/c3ccccc3)cnc2C)c(Cl)c1 [Example 70, (E)-3-(1-(2-chloro-4-(1-pentyloxy)benzyl)-2-methylimidazol-5-yl)-2-methyl-N-((E)-2-phenylethenesulfonyl)-2-propenamide]
14 | 156 to 157 °C | CCCCCOc1ccc(Cn2c(C)nc(Cl)c2/C=C(\C)C(=O)NS(=O)(=O)/C=C/c2ccccc2)c(Cl)c1 [Example 71, (E)-3-(4-chloro-1-(2-chloro-4-(1-pentyloxy)benzyl)-2-methylimidazol-5-yl)-2-methyl-N-((E)-2-phenylethenesulfonyl)-2-propenamide]
15 | 107 to 110 °C | CCCCCOc1ccc(Cn2c(C)nc(Cl)c2C(=O)NS(=O)(=O)/C=C/c2ccccc2)c(Cl)c1 [Example 72, 4-chloro-1-(2-chloro-4-(1-pentyloxy)benzyl)-2-methyl-5-((E)-2-phenylethenesulfonyl-carbamoyl)-1H-imidazole]
16 | 109 to 111 °C | CCCCCOc1ccc(Cn2c(C)nc(Cl)c2COC(=O)NS(=O)(=O)c2ccc(C)cc2)c(Cl)c1 [Example 73, (4-chloro-1-(2-chloro-4-(1-pentyloxy)benzyl)-2-methyl-1H-imidazol-5-yl)methyl N-(4-methylbenzenesulfonyl)carbamate]
